# ChEMBL document CHEMBL1126199, “(R)-(-)- and (S)-(+)-adenallene: synthesis, absolute configuration, enantioselectivity of antiretroviral effect, and enzymic deamination” (J Med Chem, 1992)
# Tested on: Human immunodeficiency virus 1
# Test: Compound was tested for inhibition of HIV-1
# Type: functional, organism-based
row,SMILES,IC50 [µM]
1,Nc1ncnc2c1ncn2C=C=CCO (stereo in doubt; 1a),14
2,Nc1ncnc2c1ncn2C=C=CCO (stereo in doubt; 2),5.8
3,Nc1ncnc2c1ncn2C=C=CCO (stereo in doubt; 3),> 200
